Source: US20260226114A1, “PEPTIDE FOR THE TREATMENT OF DISEASES ASSOCIATED WITH APOLIPOPROTEIN AI OR TRANSTHYRETIN INVOLVEMENT” (CENTRO DE INGENIERÍA GENÉTICA Y BIOTECNOLOGÍA, priority 2022, published 2026)
No end group written: not given here.

What was measured:
[1] = tested on: patients with type II diabetes; experiment: Treatment of patients with decompensated type II diabetes; type: in vivo, human; details: five patients, 1 mg every 12 hours intravenously for eight days
Description: It is exemplified with ten patients who had diabetic decompensation and reached a state of severity, that let them to be treated in the ICU of the hospital “Luis Díaz Soto” in Havana. Five of these patients were treated with a pharmaceutical composition comprising the peptide identified as SEQ ID NO: 1, so that a peptide dose of 1 mg every 12 hours was administered intravenously for eight days. In addition, they received the standard therapy needed for these cases.

patients with RA = details: cited from earlier work
[2] = tested on: patients with ischemic heart disease; experiment: Treatment of patients with ischemic heart disease and high blood pressure; type: in vivo, human; details: six patients, 1 mg every 12 hours intravenously for seven days
Description: It is exemplified with the results of six patients. They presented ischemic heart disease, associated with high blood pressure, which produced a state of severity. They were treated in the Intermediate Care Unit (IMCU) of the “Luis Diaz Soto” hospital in Havana. These patients were treated with a pharmaceutical composition comprising the peptide identified as SEQ ID NO: 1, so that a peptide dose of 1 mg every 12 hours was administered intravenously for seven days. In addition, they received the standard therapy needed for these cases.

## SIDLKDKYKNIGAKLVQLVANNTNEEA [SEQ ID NO: 1]
[1]
  side effects (clinical and imaging evaluation, blood biochemistry, differential blood count): No side effects were observed
Patients with RA
  safety: proved to be safe
[2]
  side effects (clinical and imaging evaluation, blood biochemistry, differential blood count): No side effects were observed
